Source: patent US20050192349A1, “Isolation of the peroxisome proliferation-activated receptor-gamma (PPARgamma) ligand and methods of use thereof” (Beth Israel Deaconess Medical Center, Inc., priority 2002, published 2005)

Experiments:
[1] = system: PPARγ ligand production in 5B2 cells; test: Effect of COX and LOX inhibitors on PPARγ ligand production in differentiating 5B2 cells (β-gal activity); format: cell-based, murine; details: day 2
Excerpt: To test whether PPARγ ligand production was dependent upon cyclooxygenase (COX) or lipooxygenase (LOX), which would be expected if the ligand were a prostaglandin, the effect of COX and LOX inhibitors on PPARγ ligand production during 3T3-L1 differentiation into adipocytes was examined by measuring the β-gal activity in the stable cell line, 5B2.
5B2 cells were stimulated to differentiation into adipocytes as described above. The media containing the mixture of insulin, DEX and MIX is called d0 media on FIG. 10. In the experimental samples, d0 media contained the indicated COX or LOX inhibitor. The fold induction of β-gal activity of day 2 cells was compared to cells of day 2 stimulated in the absence of hormones (g media).

PPARγ1 = test: Full-length PPARγ1 / p3DR1-luc luciferase reporter in CV-1 cells stimulated with conditioned media; format: cell-based; details: CV-1, pCMV-PPARγ and p3DR1-luc, with or without NBD1-VP16; various concentrations
Procedure: CV-1 cells were transfected with an expression vector encoding full-length PPARγ1 (pCMV-PPARγ) and a reporter plasmid p3DR1-1uc. p3DR1-luc contains a triple copy of PPARγ response element, Direct Repeat 1, linked to the luciferase gene. The cells were transfected with the reporter with or without NBD1-VP16 expression vector. The transfected cells were incubated with or without conditioned media in the absence or presence of various concentrations of PD068235. The cells were washed and lysed as described above for the β-gal assay, except that 50 μl of the lysate were mixed with 100 μl assay buffer and measured for 15 sec. in the Luminometer. Assay buffer consisted of 25 mM glycylglycine, 15 mM MgSO4, 4 mM EGTA, 1 mM DTT, 15 mM KH2PO4, 6 mM ATP and 100 μl of a 0.225 mg/ml luciferin stock solution.

3T3-L1 = details: cited from earlier work
[2] = cited from earlier work; for LDL levels: human, in vivo
[3] = target: T1, PPARγ-LBD fused to GAL4-DBD (Mus musculus, UniProt P37238); test: PPARγ ligand monitoring system (Gal4-PPARγ-LBD / pUH-gal β-gal reporter) in transfected CV-1 cells; details: 3T3-L1 stimulated 2 days with combinations of Ins, Mix and Dex
T1 sequence (P37238 238-503 limits assumed): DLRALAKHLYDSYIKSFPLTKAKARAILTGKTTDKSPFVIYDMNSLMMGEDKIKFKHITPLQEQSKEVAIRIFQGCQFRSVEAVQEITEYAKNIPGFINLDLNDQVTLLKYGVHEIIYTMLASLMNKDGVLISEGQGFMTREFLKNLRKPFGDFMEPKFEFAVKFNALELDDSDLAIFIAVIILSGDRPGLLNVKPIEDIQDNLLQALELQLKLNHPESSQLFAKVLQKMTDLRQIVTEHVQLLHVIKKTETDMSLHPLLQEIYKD
Procedure: The effector and reporter constructs were transfected into either CV-1 cells (monkey kidney cells) or 3T3-L1 cells (murine fibroblast cells capable of being differentiated into adipocytes). Cells were grown according to standard protocols for these cells. For example, 3T3-L1 cells were grown and maintained as fibroblasts in DMEM/high glucose, containing 10% calf serum in a 10% CO2 humidified environment at 37° C. The cells were maintained at a subconfluent level so as to not prematurely arrest cell growth and induce differentiation. The cells were typically split 1:5 or 1:3 every 3 to 4 days. Cells were transfected using Lipofectamine™ 2000 Reagent (Life Technologies™, Carlsbad, Calif.) according to the manufacturers instructions. Cells were plated in 24 well dishes for the assay.
The washed cells were lysed with 200 μl lysis buffer (25 mM glycylglycine, 15 mM MgSO4, 4 mM EGTA, 1 mM DTT, 1% Triton) per well. […] The β-gal activity was measured for 10 sec. in a Luminometer (LB9507, EG&G, Bad Wildbad, Germany).
CV-1 cells were transfected as described above with pUH-G4-PPARγ and pUH-gal, with or without nuclear receptor interaction domain NBD1 of SRC-1 fused with VP16 or inactivated VP16. […] The treated, transfected cells were harvested and β-gal activity measured 48 hrs post-transfection.

[4] = target: T1, PPARγ-LBD fused to GAL4-DBD; test: β-gal activity in 3T3-L1 cell lines 5B2 and 5B3 stably transfected with the feedback monitoring system; format: cell-based, murine; parameters: expressed in transfected cells
PPARγ = target: T2, PPARγ (Homo sapiens, UniProt P37231); details: cited from earlier work
T2 sequence (P37231 1-505): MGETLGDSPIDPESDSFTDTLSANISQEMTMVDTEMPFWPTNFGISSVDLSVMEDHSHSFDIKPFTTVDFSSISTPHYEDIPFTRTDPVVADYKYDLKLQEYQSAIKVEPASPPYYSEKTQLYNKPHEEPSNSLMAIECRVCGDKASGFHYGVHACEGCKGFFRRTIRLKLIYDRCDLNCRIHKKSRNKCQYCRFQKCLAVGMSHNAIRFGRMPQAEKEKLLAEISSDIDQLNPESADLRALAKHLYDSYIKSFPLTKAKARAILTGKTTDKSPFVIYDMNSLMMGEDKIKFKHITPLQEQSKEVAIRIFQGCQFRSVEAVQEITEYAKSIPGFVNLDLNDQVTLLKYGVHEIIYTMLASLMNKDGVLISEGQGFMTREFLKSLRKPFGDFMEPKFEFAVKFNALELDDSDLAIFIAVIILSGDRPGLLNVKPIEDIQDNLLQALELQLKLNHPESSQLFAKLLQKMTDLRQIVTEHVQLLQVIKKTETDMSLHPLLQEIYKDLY

Q: For `O=c1cc(-c2ccccc2)oc2cc(O)c(O)c(O)c12` [Baicalein], which “effect on β-gal activity produced by stimulated 5B2 cells” value (“effect on β-gal activity produced” for short) ([1]; 5 μM in d0 media) is on record?
A: no significant effect

Q: Which results are given for `C=CCn1cc([N+](=O)[O-])sc1=NC(=O)C(C)(C)C` [PD068235]?
A: inhibition of CM-stimulated PPARγ transcriptional activity (luciferase) (PPARγ1): dose-dependent inhibition of CM-stimulated PPARγ transcriptional activity; 3T3-L1 adipocyte differentiation (3T3-L1): prevent 3T3-L1 adipocyte differentiation

Q: Which “effect on β-gal activity produced” value ([1]; 10 μM in d0 media) does the source give for `COc1ccc2c(c1)c(CC(=O)O)c(C)n2C(=O)c1ccc(Cl)cc1` [Indomethacin] here?
A: no significant effect

Q: For `CC(C)c1ccc2c(c1)c(SC(C)(C)C)c(CC(C)(C)C(=O)O)n2Cc1ccc(Cl)cc1` [MK866], which “effect on β-gal activity produced” value ([1]; 5 μM in d0 media) is on record?
A: no significant effect

Q: For `CCCCCC(O)c1ccc(OCc2ccc3ccccc3n2)cc1` (single isomer, unassigned) [REV 5901-para-isomer], which “effect on β-gal activity produced” value ([1]; 5 μM in d0 media) is on record?
A: no significant effect

Q: For `CC(Cc1ccc(O)c(O)c1)C(C)Cc1ccc(O)c(O)c1` (stereo not drawn) [NDGA], which “effect on β-gal activity produced” value ([1]; 10 μM in d0 media) is on record?
A: no significant effect

Q: With `Cc1c(C)c2c(c(C)c1O)CCC(C)(COc1ccc(CC3SC(=O)NC3=O)cc1)O2` (stereo not drawn) [Troglitazone] as the molecule, how does the LDL levels [2] read?
A: associated with a rise in LDL levels

Q: What about the liver toxicity ([2]; patients) of the same molecule?
A: liver toxicity in some patients

Q: For `CC(C)Cn1c(=O)n(C)c(=O)c2[nH]cnc21` [Mix, methyl iso-butyl xanthine], which “ligand production of 3T3-L1 cells (β-gal activity of CV-1 cells incubated with conditioned media)” value [3] is on record?
A: dependent on stimulation by Mix

Q: And the “induction of β-gal activity by components of the adipogenic mixture” value ([4]; 5B2 and 5B3, combinations of Ins, 0.5 mM Mix, Dex, day 2)?
A: dependent on the stimulation by Mix

Q: And the “ligand production (β-gal activity) on stimulation with cAMP elevating compounds” value ([4]; 5B2 cells)?
A: induced the ligand production of differentiating pre-adipocytes by increasing the intracellular cAMP

Q: With `CCCCC/C=C\C/C=C\CCCCCCCC(=O)O` [linoleic acid] as the molecule, how does the “direct binding to PPARγ” value (PPARγ) read?
A: bind directly to PPARγ

Q: Which Kd (PPARγ; read-out: affinity (dissociation constant) of PPARγ for the ligand) does the source give for `CCCCC/C=C/C=C1/C(=O)C=C[C@@H]1C/C=C\CCCC(=O)O` [15-deoxyΔ^12,14PG J2] here?
A: 2 to 50 µM

Q: Which LDL levels [2] does the source give for `CN(CCOc1ccc(CC2SC(=O)NC2=O)cc1)c1ccccn1` (stereo not drawn) [rosiglitazone] here?
A: associated with a rise in LDL levels
